From ChEMBL document CHEMBL4507256 (2021)

How the values were obtained:
[1] = tested on: Tyrosine-protein kinase ABL1 (Homo sapiens), P00519 [F317I]; conditions: Compound concentration 1000.0 nM
[2] = target: Tyrosine-protein kinase ABL1 (Homo sapiens) (UniProt P00519); conditions: Compound concentration 1000.0 nM
[3] = target: Activin receptor type-1B (Homo sapiens) (UniProt P36896); conditions: Compound concentration 1000.0 nM
[4] = target: Atypical kinase COQ8B, mitochondrial (Homo sapiens) (UniProt Q96D53); conditions: Compound concentration 1000.0 nM
[5] = target: Aurora kinase B (Homo sapiens) (UniProt Q96GD4); conditions: Compound concentration 1000.0 nM
[6] = target: Serine/threonine-protein kinase BRSK2 (Homo sapiens) (UniProt Q8IWQ3); conditions: Compound concentration 1000.0 nM
[7] = target: Calcium/calmodulin-dependent protein kinase type 1B (Homo sapiens) (UniProt Q6P2M8); conditions: Compound concentration 1000.0 nM
[8] = target: Calcium/calmodulin-dependent protein kinase type II subunit alpha (Homo sapiens) (UniProt Q9UQM7); conditions: Compound concentration 1000.0 nM
[9] = target: Calcium/calmodulin-dependent protein kinase type II subunit beta (Homo sapiens) (UniProt Q13554); conditions: Compound concentration 1000.0 nM
[10] = target: Cyclin-dependent kinase 9 (Homo sapiens) (UniProt P50750); conditions: Compound concentration 1000.0 nM
[11] = target: Cyclin-dependent kinase-like 1 (Homo sapiens) (UniProt Q00532); conditions: Compound concentration 1000.0 nM
[12] = tested on: Epidermal growth factor receptor (Homo sapiens), P00533 [UNDEFINED MUTATION]; conditions: Compound concentration 1000.0 nM
[13] = tested on: Epidermal growth factor receptor (Homo sapiens), P00533 [L858R,T790M]; conditions: Compound concentration 1000.0 nM
[14] = target: Vascular endothelial growth factor receptor 1 (Homo sapiens) (UniProt P17948); conditions: Compound concentration 1000.0 nM
[15] = tested on: Receptor-type tyrosine-protein kinase FLT3 (Homo sapiens), P36888 [K663Q]; conditions: Compound concentration 1000.0 nM
[16] = target: Tyrosine-protein kinase Fyn (Homo sapiens) (UniProt P06241); conditions: Compound concentration 1000.0 nM
[17] = target: Rhodopsin kinase GRK7 (Homo sapiens) (UniProt Q8WTQ7); conditions: Compound concentration 1000.0 nM
[18] = target: Tyrosine-protein kinase JAK3 (Homo sapiens) (UniProt P52333); conditions: Compound concentration 1000.0 nM
[19] = target: Mitogen-activated protein kinase 8 (Homo sapiens) (UniProt P45983); conditions: Compound concentration 1000.0 nM
[20] = target: Mitogen-activated protein kinase 10 (Homo sapiens) (UniProt P53779); conditions: Compound concentration 1000.0 nM
[21] = tested on: Mast/stem cell growth factor receptor Kit (Homo sapiens), P10721 [A829P]; conditions: Compound concentration 1000.0 nM
[22] = target: LIM domain kinase 2 (Homo sapiens) (UniProt P53671); conditions: Compound concentration 1000.0 nM
[23] = target: Tyrosine-protein kinase Lyn (Homo sapiens) (UniProt P07948); conditions: Compound concentration 1000.0 nM
[24] = target: Mitogen-activated protein kinase kinase kinase 2 (Homo sapiens) (UniProt Q9Y2U5); conditions: Compound concentration 1000.0 nM
[25] = target: Mitogen-activated protein kinase kinase kinase kinase 4 (Homo sapiens) (UniProt O95819); conditions: Compound concentration 1000.0 nM
[26] = target: MAP kinase-activated protein kinase 2 (Homo sapiens) (UniProt P49137); conditions: Compound concentration 1000.0 nM
[27] = target: Serine/threonine-protein kinase MARK2 (Homo sapiens) (UniProt Q7KZI7); conditions: Compound concentration 1000.0 nM
[28] = target: Maternal embryonic leucine zipper kinase (Homo sapiens) (UniProt Q14680); conditions: Compound concentration 1000.0 nM
[29] = target: Myosin light chain kinase, smooth muscle (Homo sapiens) (UniProt Q15746); conditions: Compound concentration 1000.0 nM
[30] = target: Serine/threonine-protein kinase 38 (Homo sapiens) (UniProt Q15208); conditions: Compound concentration 1000.0 nM
[31] = target: Serine/threonine-protein kinase PAK 2 (Homo sapiens) (UniProt Q13177); conditions: Compound concentration 1000.0 nM
[32] = target: Serine/threonine-protein kinase PAK 5 (Homo sapiens) (UniProt Q9P286); conditions: Compound concentration 1000.0 nM
[33] = target: Platelet-derived growth factor receptor alpha (Homo sapiens) (UniProt P16234); conditions: Compound concentration 1000.0 nM
[34] = target: Calcium-dependent protein kinase 1 (Plasmodium falciparum) (UniProt P62344); conditions: Compound concentration 1000.0 nM
[35] = tested on: Phosphatidylinositol 4,5-bisphosphate 3-kinase catalytic subunit alpha isoform (Homo sapiens), P42336 [E545A]; conditions: Compound concentration 1000.0 nM
[36] = tested on: Phosphatidylinositol 4,5-bisphosphate 3-kinase catalytic subunit alpha isoform (Homo sapiens), P42336 [H1047Y]; conditions: Compound concentration 1000.0 nM
[37] = tested on: Phosphatidylinositol 4,5-bisphosphate 3-kinase catalytic subunit alpha isoform (Homo sapiens), P42336 [M1043I]; conditions: Compound concentration 1000.0 nM
[38] = target: Phosphatidylinositol 4-phosphate 5-kinase type-1 gamma (Homo sapiens) (UniProt O60331); conditions: Compound concentration 1000.0 nM
[39] = target: Serine/threonine-protein kinase RIO2 (Homo sapiens) (UniProt Q9BVS4); conditions: Compound concentration 1000.0 nM
[40] = target: SRSF protein kinase 3 (Homo sapiens) (UniProt Q9UPE1); conditions: Compound concentration 1000.0 nM
[41] = target: Tyrosine-protein kinase SYK (Homo sapiens) (UniProt P43405); conditions: Compound concentration 1000.0 nM
[42] = target: Mitogen-activated protein kinase kinase kinase 7 (Homo sapiens) (UniProt O43318); conditions: Compound concentration 1000.0 nM
[43] = target: 5-hydroxytryptamine receptor 1A (Homo sapiens) (UniProt P08908); conditions: Compound concentration 10.0 uM
[44] = target: 5-hydroxytryptamine receptor 1B (Homo sapiens) (UniProt P28222); conditions: Compound concentration 10.0 uM
[45] = target: Delta-type opioid receptor (Homo sapiens) (UniProt P41143); conditions: Compound concentration 10.0 uM

Chain of Myosin light chain kinase, smooth muscle (Homo sapiens) (Q15746 whole entry): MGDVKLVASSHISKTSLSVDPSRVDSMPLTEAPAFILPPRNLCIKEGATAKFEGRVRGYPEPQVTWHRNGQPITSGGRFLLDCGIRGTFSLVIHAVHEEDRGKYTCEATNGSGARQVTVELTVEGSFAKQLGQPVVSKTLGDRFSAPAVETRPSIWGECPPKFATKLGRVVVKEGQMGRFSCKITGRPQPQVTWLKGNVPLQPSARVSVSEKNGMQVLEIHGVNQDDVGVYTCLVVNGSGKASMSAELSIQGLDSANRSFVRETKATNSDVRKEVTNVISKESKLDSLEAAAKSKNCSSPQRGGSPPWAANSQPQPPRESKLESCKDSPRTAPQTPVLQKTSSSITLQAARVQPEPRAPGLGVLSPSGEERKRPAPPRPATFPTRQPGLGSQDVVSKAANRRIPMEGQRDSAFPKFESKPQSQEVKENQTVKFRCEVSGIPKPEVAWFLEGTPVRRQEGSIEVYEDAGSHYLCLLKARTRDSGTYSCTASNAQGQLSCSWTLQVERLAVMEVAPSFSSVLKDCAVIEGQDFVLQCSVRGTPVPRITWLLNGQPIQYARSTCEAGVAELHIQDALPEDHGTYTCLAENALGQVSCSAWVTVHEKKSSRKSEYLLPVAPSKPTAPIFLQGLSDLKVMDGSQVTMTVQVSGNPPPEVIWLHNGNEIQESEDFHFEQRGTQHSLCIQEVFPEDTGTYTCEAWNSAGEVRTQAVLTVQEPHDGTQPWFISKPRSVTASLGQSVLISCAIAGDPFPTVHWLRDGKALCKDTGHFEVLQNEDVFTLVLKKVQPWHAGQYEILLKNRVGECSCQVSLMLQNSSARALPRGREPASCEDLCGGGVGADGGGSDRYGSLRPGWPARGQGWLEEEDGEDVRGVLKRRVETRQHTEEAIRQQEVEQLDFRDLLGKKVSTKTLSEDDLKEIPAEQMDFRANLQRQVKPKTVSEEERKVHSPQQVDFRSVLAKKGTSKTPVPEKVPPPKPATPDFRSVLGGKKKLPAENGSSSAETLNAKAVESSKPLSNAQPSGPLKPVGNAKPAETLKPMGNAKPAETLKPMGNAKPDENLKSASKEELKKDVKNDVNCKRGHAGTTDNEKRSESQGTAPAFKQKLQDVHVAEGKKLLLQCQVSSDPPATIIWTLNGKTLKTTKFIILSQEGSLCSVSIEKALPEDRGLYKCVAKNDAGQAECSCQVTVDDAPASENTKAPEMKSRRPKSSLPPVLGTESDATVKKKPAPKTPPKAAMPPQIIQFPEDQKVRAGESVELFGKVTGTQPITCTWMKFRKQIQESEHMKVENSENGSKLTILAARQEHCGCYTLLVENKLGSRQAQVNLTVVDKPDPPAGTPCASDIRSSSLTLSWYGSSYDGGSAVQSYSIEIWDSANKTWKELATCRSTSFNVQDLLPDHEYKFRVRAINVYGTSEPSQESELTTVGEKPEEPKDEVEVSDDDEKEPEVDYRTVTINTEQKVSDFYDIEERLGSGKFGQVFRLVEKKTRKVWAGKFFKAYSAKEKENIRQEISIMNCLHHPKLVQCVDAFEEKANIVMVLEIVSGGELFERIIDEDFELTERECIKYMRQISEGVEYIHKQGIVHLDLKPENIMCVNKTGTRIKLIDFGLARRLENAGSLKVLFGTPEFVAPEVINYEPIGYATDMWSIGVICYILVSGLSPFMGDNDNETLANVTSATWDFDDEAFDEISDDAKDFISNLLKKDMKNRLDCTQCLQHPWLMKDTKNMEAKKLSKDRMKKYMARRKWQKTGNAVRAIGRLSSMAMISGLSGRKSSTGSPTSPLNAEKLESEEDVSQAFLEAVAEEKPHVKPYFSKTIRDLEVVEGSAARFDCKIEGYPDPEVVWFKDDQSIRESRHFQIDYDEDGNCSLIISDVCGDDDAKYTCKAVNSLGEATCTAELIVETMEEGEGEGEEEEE
Chain of Cyclin-dependent kinase-like 1 (Homo sapiens) (Q00532 whole entry): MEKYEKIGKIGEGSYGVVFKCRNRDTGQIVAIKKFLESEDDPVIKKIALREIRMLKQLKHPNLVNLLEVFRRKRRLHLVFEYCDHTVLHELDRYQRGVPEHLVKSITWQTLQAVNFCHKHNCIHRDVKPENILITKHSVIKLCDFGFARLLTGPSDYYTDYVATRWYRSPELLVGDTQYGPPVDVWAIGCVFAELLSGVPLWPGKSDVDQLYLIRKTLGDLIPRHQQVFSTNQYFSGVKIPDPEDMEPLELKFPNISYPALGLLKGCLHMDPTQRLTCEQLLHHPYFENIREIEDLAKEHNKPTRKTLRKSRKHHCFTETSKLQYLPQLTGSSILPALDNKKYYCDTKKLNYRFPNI
Chain of Serine/threonine-protein kinase 38 (Homo sapiens) (Q15208 2-465 limits assumed): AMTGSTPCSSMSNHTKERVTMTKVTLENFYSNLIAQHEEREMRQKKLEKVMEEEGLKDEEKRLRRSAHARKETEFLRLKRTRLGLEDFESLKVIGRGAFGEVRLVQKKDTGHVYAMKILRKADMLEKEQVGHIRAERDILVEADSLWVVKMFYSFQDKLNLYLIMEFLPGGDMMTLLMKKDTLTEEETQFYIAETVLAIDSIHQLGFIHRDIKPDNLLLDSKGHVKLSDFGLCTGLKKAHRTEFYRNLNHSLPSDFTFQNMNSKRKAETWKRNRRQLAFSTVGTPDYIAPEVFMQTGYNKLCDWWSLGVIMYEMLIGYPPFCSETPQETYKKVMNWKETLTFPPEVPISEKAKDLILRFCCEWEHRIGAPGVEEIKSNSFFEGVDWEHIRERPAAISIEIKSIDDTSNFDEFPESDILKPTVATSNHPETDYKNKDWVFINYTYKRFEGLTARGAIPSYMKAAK
Chain of Phosphatidylinositol 4,5-bisphosphate 3-kinase catalytic subunit alpha isoform (Homo sapiens), P42336 [E545A] (P42336 whole entry E545A, canonical isoform): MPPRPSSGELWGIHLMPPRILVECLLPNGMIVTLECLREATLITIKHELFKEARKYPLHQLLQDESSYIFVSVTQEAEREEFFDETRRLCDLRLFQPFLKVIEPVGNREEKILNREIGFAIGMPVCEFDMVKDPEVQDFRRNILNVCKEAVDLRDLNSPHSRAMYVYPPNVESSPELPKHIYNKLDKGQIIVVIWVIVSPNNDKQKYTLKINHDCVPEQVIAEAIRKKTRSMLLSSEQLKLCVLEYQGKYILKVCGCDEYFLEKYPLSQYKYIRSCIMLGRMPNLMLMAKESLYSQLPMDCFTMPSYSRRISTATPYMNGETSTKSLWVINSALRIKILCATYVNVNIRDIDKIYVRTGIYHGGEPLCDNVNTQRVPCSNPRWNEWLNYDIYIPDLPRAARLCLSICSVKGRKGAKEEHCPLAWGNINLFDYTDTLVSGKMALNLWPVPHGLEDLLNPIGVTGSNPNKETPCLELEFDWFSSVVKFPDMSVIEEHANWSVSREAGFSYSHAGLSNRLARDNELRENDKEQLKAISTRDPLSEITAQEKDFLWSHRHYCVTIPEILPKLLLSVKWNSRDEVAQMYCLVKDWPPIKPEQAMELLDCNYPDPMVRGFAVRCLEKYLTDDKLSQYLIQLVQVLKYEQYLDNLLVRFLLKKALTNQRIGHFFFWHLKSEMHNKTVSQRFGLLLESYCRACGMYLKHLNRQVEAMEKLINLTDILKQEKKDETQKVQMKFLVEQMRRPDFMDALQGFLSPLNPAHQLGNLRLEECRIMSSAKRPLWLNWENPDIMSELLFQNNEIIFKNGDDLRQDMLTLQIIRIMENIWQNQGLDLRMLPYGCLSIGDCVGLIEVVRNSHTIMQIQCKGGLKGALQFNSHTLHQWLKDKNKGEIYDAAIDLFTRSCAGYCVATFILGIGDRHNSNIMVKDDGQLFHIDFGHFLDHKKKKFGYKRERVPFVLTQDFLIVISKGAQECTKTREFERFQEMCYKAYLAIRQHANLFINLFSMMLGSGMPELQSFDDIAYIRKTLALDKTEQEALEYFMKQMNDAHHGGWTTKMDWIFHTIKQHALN
Chain of Serine/threonine-protein kinase RIO2 (Homo sapiens) (Q9BVS4 whole entry, looked up): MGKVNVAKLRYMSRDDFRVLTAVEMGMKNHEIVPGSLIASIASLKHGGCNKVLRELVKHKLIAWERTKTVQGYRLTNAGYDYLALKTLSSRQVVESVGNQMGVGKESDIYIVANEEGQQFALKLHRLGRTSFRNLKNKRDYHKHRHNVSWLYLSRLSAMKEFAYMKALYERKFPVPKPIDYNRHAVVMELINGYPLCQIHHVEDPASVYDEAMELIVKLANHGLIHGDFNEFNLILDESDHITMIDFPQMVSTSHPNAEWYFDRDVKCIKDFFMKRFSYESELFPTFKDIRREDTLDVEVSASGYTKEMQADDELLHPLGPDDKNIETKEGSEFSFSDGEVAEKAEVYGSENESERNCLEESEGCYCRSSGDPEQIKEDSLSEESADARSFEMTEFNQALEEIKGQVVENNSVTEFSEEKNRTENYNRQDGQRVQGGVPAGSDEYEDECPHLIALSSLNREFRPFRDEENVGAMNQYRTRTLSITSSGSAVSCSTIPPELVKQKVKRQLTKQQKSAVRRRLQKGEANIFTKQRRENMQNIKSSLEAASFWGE
Chain of 5-hydroxytryptamine receptor 1B (Homo sapiens) (P28222 whole entry): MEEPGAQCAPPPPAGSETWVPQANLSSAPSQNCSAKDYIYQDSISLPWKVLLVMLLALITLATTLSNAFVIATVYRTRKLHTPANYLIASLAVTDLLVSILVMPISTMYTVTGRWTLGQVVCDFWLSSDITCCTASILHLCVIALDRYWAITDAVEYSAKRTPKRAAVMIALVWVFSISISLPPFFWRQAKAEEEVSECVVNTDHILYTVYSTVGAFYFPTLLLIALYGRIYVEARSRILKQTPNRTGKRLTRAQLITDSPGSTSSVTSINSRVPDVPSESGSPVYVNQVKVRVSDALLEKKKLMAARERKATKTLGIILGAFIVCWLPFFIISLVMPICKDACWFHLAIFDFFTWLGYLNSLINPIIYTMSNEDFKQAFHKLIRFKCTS
Chain of Phosphatidylinositol 4,5-bisphosphate 3-kinase catalytic subunit alpha isoform (Homo sapiens), P42336 [H1047Y] (P42336 whole entry H1047Y, canonical isoform): as the sequence (P42336 whole entry E545A, canonical isoform) above, with A545E, H1047Y counted along it
Chain of Phosphatidylinositol 4,5-bisphosphate 3-kinase catalytic subunit alpha isoform (Homo sapiens), P42336 [M1043I] (P42336 whole entry M1043I, canonical isoform): as the sequence (P42336 whole entry E545A, canonical isoform) above, with A545E, M1043I counted along it

CCC(=N\O)/C(C)=C/c1ccc(F)c(C)c1 [A-226]
inactive: residual activity [1] 100% | residual activity [2] 100% | residual activity [3] 82% | residual activity [4] 83% | residual activity [5] 100% | residual activity [6] 100% | residual activity [7] 100% | residual activity [8] 100% | residual activity [9] 100% | residual activity [10] 96% | residual activity [11] 91% | residual activity [12] 65% | residual activity [13] 100% | residual activity [14] 100% | residual activity [15] 100% | residual activity [16] 72% | residual activity [17] 100% | residual activity [18] 94% | residual activity [19] 100% | residual activity [20] 100% | residual activity [21] 100% | residual activity [22] 90% | residual activity [23] 100% | residual activity [24] 100% | residual activity [25] 100% | residual activity [26] 94% | residual activity [27] 100% | residual activity [28] 100% | residual activity [29] 93% | residual activity [30] 95% | residual activity [31] 79% | residual activity [32] 100% | residual activity [33] 100% | residual activity [34] 85% | residual activity [35] 100% | residual activity [36] 100% | residual activity [37] 71% | residual activity [38] 78% | residual activity [39] 73% | residual activity [40] 100% | residual activity [41] 76% | residual activity [42] 99% | inhibition [43] 1.12% | inhibition [44] -1.04% | inhibition [45] 2.53%

CCC(=N\O)/C(C)=C/c1ccc(F)cc1 [A-079]
inactive: residual activity [1] 77% | residual activity [2] 66% | residual activity [3] 77% | residual activity [4] 84% | residual activity [5] 68% | residual activity [6] 100% | residual activity [7] 82% | residual activity [8] 81% | residual activity [9] 97% | residual activity [10] 93% | residual activity [11] 81% | residual activity [12] 67% | residual activity [13] 100% | residual activity [14] 87% | residual activity [15] 100% | residual activity [16] 100% | residual activity [17] 85% | residual activity [18] 80% | residual activity [19] 86% | residual activity [20] 100% | residual activity [21] 64% | residual activity [22] 80% | residual activity [23] 87% | residual activity [24] 85% | residual activity [25] 97% | residual activity [26] 69% | residual activity [27] 100% | residual activity [28] 96% | residual activity [29] 100% | residual activity [30] 94% | residual activity [31] 82% | residual activity [32] 100% | residual activity [33] 78% | residual activity [34] 87% | residual activity [35] 76% | residual activity [36] 82% | residual activity [37] 88% | residual activity [38] 100% | residual activity [39] 86% | residual activity [40] 91% | residual activity [41] 100% | residual activity [42] 81% | inhibition [43] 6.81% | inhibition [44] 7.88% | inhibition [45] -7.17%
